# Measured values taken from patent US20140073761A1, “CONJUGATES CONTAINING HYDROPHILIC SPACER LINKERS” (priority 2007, published 2014).
# Assays:
# RAW264.7 cells = type: cell-based; conditions: for RAW264.7 Cells Competable with xs folate: excess folic acid
# Description: In Vitro Concentration-Dependent Cytotoxic Activity. Cells were heavily seeded in 24-well Falcon plates and allowed to form nearly confluent monolayers overnight. Thirty minutes prior to the addition of test article, spent medium was aspirated from all wells and replaced with fresh folate-free RPMI (FFRPMI). […] Treated cells were pulsed for 2 h at 37° C., rinsed 4 times with 0.5 mL of media, and then chased in 1 mL of fresh media up to 70 h. Spent media was aspirated from all wells and replaced with fresh media containing 5 μCi/mL ^3H-thymidine. Following a further 2 h 37° C. incubation, cells were washed 3 times with 0.5 mL of PBS and then treated with 0.5 mL of ice-cold 5% trichloroacetic acid per well. After 15 min, the trichloroacetic acid was aspirated and the cell material solubilized by the addition of 0.5 mL of 0.25 N sodium hydroxide for 15 min. Four hundred and fifty μL of each solubilized sample were transferred to scintillation vials containing 3 mL of Ecolume scintillation cocktail and then counted in a liquid scintillation counter. Final tabulated results were expressed as the percentage of ^3H-thymidine incorporation relative to untreated controls.
# As shown in the figures herein, dose-dependent cytotoxicity was measurable, and in most cases, the IC50 values (concentration of drug conjugate required to reduce ^3H-thymidine incorporation into newly synthesized DNA by 50%) were in the low nanomolar range. […] The following table illustrated data for selected compounds against KB cells and against RAW264.7 cells
# [1] = rat, in vivo
# Description: Comparison of Bile Clearance (% ID) of unconjugated drug, drug conjugate lacking a hydrophilic spacer linker, and conjugates described herein.
SMILES,RAW264.7 Cells Competable with xs folate (RAW264.7 cells),IC50 (RAW264.7 cells) [nM],Bile clearance (% ID) [1] [% ID]
CO[C@H]1C[C@@H]2CC[C@@H](C)[C@@](O)(O2)C(=O)C(=O)N2CCCC[C@H]2C(=O)O[C@H]([C@H](C)C[C@@H]2CC[C@@H](O)[C@H](OC)C2)CC(=O)[C@H](C)/C=C(\C)[C@@H](OC(=O)OCCSSCCC(=O)NC[C@@H]2NC(=O)[C@@H](NC(=O)[C@H](CCC(=O)O)NC(=O)[C@H](CCC(=O)NC[C@H](O)[C@@H](O)[C@H](O)[C@H](O)CO)NC(=O)[C@H](CCC(=O)O)NC(=O)[C@H](CCC(=O)NC[C@H](O)[C@@H](O)[C@H](O)[C@H](O)CO)NC(=O)CC[C@H](NC(=O)c3ccc(NCc4cnc5nc(N)[nH]c(=O)c5n4)cc3)C(=O)O)CCC(=O)NC[C@H](O)[C@@H](O)[C@H](O)[C@H]3COB(O3)[C@H](CC(C)C)NC(=O)[C@H](Cc3ccccc3)NC(=O)c3cnc(cn3)CSSC[C@@H](C(=O)O)NC2=O)[C@@H](OC)C(=O)[C@H](C)C[C@H](C)/C=C/C=C/C=C/1C [EC0563],Yes,–,–
CO[C@H]1C[C@@H]2CC[C@@H](C)[C@@](O)(O2)C(=O)C(=O)N2CCCC[C@H]2C(=O)O[C@H]([C@H](C)C[C@@H]2CC[C@@H](O)[C@H](OC)C2)CC(=O)[C@H](C)/C=C(\C)[C@@H](OC(=O)OCCSSC[C@H](NC(=O)[C@H](CCC(=O)NC[C@H](O)[C@@H](O)[C@H](O)[C@H](O)CO)NC(=O)[C@H](CCC(=O)O)NC(=O)[C@H](CCC(=O)NC[C@H](O)[C@@H](O)[C@H](O)[C@H](O)CO)NC(=O)[C@H](CCC(=O)O)NC(=O)[C@H](CCC(=O)NC[C@H](O)[C@@H](O)[C@H](O)[C@H](O)CO)NC(=O)CC[C@H](NC(=O)c2ccc(NCc3cnc4nc(N)[nH]c(=O)c4n3)cc2)C(=O)O)C(=O)O)[C@@H](OC)C(=O)[C@H](C)C[C@H](C)/C=C/C=C/C=C/1C [EC0552],Yes,–,–
Nc1nc(N)c2nc(CNc3ccc(C(=O)N[C@@H](CCC(=O)OCCSSC[C@H](NC(=O)[C@H](CCC(=O)NC[C@H](O)[C@@H](O)[C@H](O)[C@H](O)CO)NC(=O)[C@H](CCC(=O)O)NC(=O)[C@H](CCC(=O)NC[C@H](O)[C@@H](O)[C@H](O)[C@H](O)CO)NC(=O)[C@H](CCC(=O)O)NC(=O)[C@H](CCC(=O)NC[C@H](O)[C@@H](O)[C@H](O)[C@H](O)CO)NC(=O)CC[C@H](NC(=O)c4ccc(NCc5cnc6nc(N)[nH]c(=O)c6n5)cc4)C(=O)O)C(=O)O)C(=O)O)cc3)cnc2n1 [EC0551],Yes,1,–
CO[C@H]1C[C@@H]2CC[C@@H](C)[C@@](O)(O2)C(=O)C(=O)N2CCCC[C@H]2C(=O)O[C@H]([C@H](C)C[C@@H]2CC[C@@H](OCCOC(=O)OCCSSCCC(=O)NC[C@@H]3NC(=O)[C@@H](NC(=O)[C@H](CCC(=O)O)NC(=O)[C@H](CCC(=O)NC[C@H](O)[C@@H](O)[C@H](O)[C@H](O)CO)NC(=O)[C@H](CCC(=O)O)NC(=O)[C@H](CCC(=O)NC[C@H](O)[C@@H](O)[C@H](O)[C@H](O)CO)NC(=O)CC[C@H](NC(=O)c4ccc(NCc5cnc6nc(N)[nH]c(=O)c6n5)cc4)C(=O)O)CCC(=O)NC[C@H](O)[C@@H](O)[C@H](O)[C@H]4COB(O4)[C@H](CC(C)C)NC(=O)[C@H](Cc4ccccc4)NC(=O)c4cnc(cn4)CSSC[C@@H](C(=O)O)NC3=O)[C@H](OC)C2)CC(=O)[C@H](C)/C=C(\C)[C@@H](O)[C@@H](OC)C(=O)[C@H](C)C[C@H](C)/C=C/C=C/C=C/1C [EC0582],Yes,–,–
"CC[C@]1(O)C[C@@H]2CN(CCc3c([nH]c4ccccc34)[C@@](C(=O)OC)(c3cc4c(cc3OC)N(C)[C@H]3[C@@](O)(C(=O)NN)[C@H](O)[C@]5(CC)C=CCN6CC[C@]43[C@@H]65)C2)C1 [DAVLBH, deacetylvinblastine monohydrazide, reference compound]",–,–,58.0
CNC(=O)[C@H](Cc1cn(CCO[C@@H]2OC(C(=O)O)C(O)[C@H](O)C2O)nn1)NC(=O)CC[C@H](NC(=O)c1ccc(NCc2cnc3nc(N)nc(O)c3n2)cc1)C(=O)O (stereo partly shown) [EC0423],–,–,3.9
